Laboratory results taken from PubChem BioAssay AID2060352 (Molecular Pharmacology Branch, DTP, NCI, 2025).
Where “and” joins values, the source holds several entries; their conditions need not be identical. Identical values can stand only once.

System: 616215-338-R-J1-PDC spheroid with HUVEC/MSC, viability
Test: Anticancer human tumor 616215-338-R-J1-PDC patient-derived colon adenocarcinoma cell line growth inhibition [TAK]
Settings: for viability, T/C: stronger effect = lower value
Source text: Combinatorial screen of targeted agents with TAK-243 and ipatasertib in multi-cell type tumor spheroids
A high-throughput screen of multi-cell type tumor spheroids was designed to identify active combinations of targeted small molecules and TAK-243 or ipatasertib. Complex spheroids include a stromal component modeled by human endothelial cells (HUVEC) and fibroblasts modeled by human mesenchymal stem cells (MSCs). The concentration ranges selected for each drug and investigational agent were based upon clinically achievable concentrations if the clinical Cmax of the agent was known.
Compounds. The drugs and investigational agents: TAK-243 (785004), ipatasertib (767898), everolimus (733504), selumetinib (741078), bortezomib (756655), trametinib (758246), ixazomib (758254), vemurafenib (761431), dabrafenib (764134), sapanisertib (764658), alpelisib (765974), and copanlisib (816437), were obtained from the National Cancer Institute (NCI) Developmental Therapeutics Program Chemical Repository. The FDA-approved anticancer drug set is available from the NCI Developmental Therapeutics Program. […] The stock solutions were prepared in dimethyl sulfoxide (DMSO, Sigma-Aldrich, St. Louis, MO, cat. D2650) at 800-fold the tested concentration and stored at -70 degrees C prior to their use. All drugs and investigational agents were tested over a range starting from a high concentration at or near the clinical Cmax and decreasing in half-log increments. If the clinical Cmax for an agent had not been determined, the highest concentration tested was 10 microM.
NCI60 Cell Culture. NCI60 cell lines were obtained from the NCI Developmental Therapeutics Program Tumor Repository. For each lot of cells, the Repository performed Applied Biosystems AmpFLSTR Identifiler testing with PCR amplification to confirm consistency with the published Identifier STR profile for each cell line. Cells were kept in continuous culture for no more than 20 passages. The optimal seeding densities for each of the cell lines at each time point assessed were determined prior to performing the concentration response studies. Briefly, the NCI60 human tumor lines were grown as monolayers in RPMI 1640 medium supplemented with 10% FBS and 2 mmol/L L-glutamine.
An additional 2 lines were from the NCI60 cell line panel including melanomas, MALME-3M and SK-MEL-2. Pooled donor human umbilical vein endothelial cells (HUVEC, Lonza, cat. CC-2519) and human mesenchymal stem cells (hMSC, Lonza, cat. PT-2501) were purchased from Lonza (Walkersville, MD).
PDMR cell lines were grown in complete medium (DC medium): Dulbecco's modified Eagle's medium (DMEM)/F12 supplemented with 5% fetal bovine serum (FBS), 2 mM L-glutamine, 100 U/mL penicillin and 100 µg/ml streptomycin, 0.4 µg/ml hydrocortisone, 10 ng/ml epidermal growth factor (EGF) recombinant human protein, 24 µg/mL adenine, and 0.1 mg/mL primocin. During culture from frozen stock vials, PDMR cells were cultured in the same medium containing 10 µM Y-27632 (see Table 3). The PDCs were cultured in complete DMEM/F12 media without 10 microM Y-27632 dihydrochloride for at least two passages prior to the screen. The pooled donor HUVEC and hMSC were cultured in endothelial cell growth medium 2 (PromoCell, Heidelberg, Germany, cat. C-22011) and mesenchymal stem cell growth medium 2 (PromoCell, cat. C-28009), respectively. For all experiments, HUVEC and hMSC were used at passages </=5.
For the pre-screen, cell seeding densities were determined from a titration spanning the range from 5,000 to 313 cells per well. The mct-spheroids including 60% malignant cells, 25% HUVEC and 15% MSC dispensed as a mixture into U-bottom Ultra-Low Attachment 384-well plates (Corning, NY)
High-throughput Drug Combination Screening.
Prior to their inoculation into 384-well plates, malignant cells, HUVEC, and hMSC were removed from T flasks using TrypLE express (Thermo Fisher Scientific, cat. 12605036) and harvested by centrifugation for 5 min at 233 x g. […]

[1] = curve of first compound, second compound 0.3 µM
[2] = curve of first compound, second compound 0.949 µM
[3] = curve of first compound, second compound 3 µM
[4] = curve of first compound, second compound 9.49 µM
[5] = curve of first compound, second compound 30 µM
[6] = second compound 0.3 µM, first compound 0.000316 µM
[7] = second compound 0.3 µM, first compound 0.001 µM
[8] = second compound 0.3 µM, first compound 0.00316 µM
[9] = second compound 0.3 µM, first compound 0.01 µM
[10] = second compound 0.3 µM, first compound 0.0316 µM
[11] = second compound 0.3 µM, first compound 0.1 µM
[12] = second compound 0.949 µM, first compound 0.000316 µM
[13] = second compound 0.949 µM, first compound 0.001 µM
[14] = second compound 0.949 µM, first compound 0.00316 µM
[15] = second compound 0.949 µM, first compound 0.01 µM
[16] = second compound 0.949 µM, first compound 0.0316 µM
[17] = second compound 0.949 µM, first compound 0.1 µM
[18] = second compound 3 µM, first compound 0.000316 µM
[19] = second compound 3 µM, first compound 0.001 µM
[20] = second compound 3 µM, first compound 0.00316 µM
[21] = second compound 3 µM, first compound 0.01 µM
[22] = second compound 3 µM, first compound 0.0316 µM
[23] = second compound 3 µM, first compound 0.1 µM
[24] = second compound 9.49 µM, first compound 0.000316 µM
[25] = second compound 9.49 µM, first compound 0.001 µM
[26] = second compound 9.49 µM, first compound 0.00316 µM
[27] = second compound 9.49 µM, first compound 0.01 µM
[28] = second compound 9.49 µM, first compound 0.0316 µM
[29] = second compound 9.49 µM, first compound 0.1 µM
[30] = second compound 30 µM, first compound 0.000316 µM
[31] = second compound 30 µM, first compound 0.001 µM
[32] = second compound 30 µM, first compound 0.00316 µM
[33] = second compound 30 µM, first compound 0.01 µM
[34] = second compound 30 µM, first compound 0.0316 µM
[35] = second compound 30 µM, first compound 0.1 µM
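Note: spheroids exposed to drugs for 7 days before readout.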

CC(C)CC(NC(=O)CNC(=O)c1cc(Cl)ccc1Cl)B1OC(=O)CC(CC(=O)O)(C(=O)O)O1 (stereo not given) + CC(C)NCC(C(=O)N1CCN(c2ncnc3c2C(C)CC3O)CC1)c1ccc(Cl)cc1
IC50 [1]: 21 nM | IC50 [2]: 20.7 nM | IC50 [3]: 14.2 nM | IC50 [4]: < 0.316 nM | IC50 [5]: < 0.316 nM | viability, T/C [6]: 115% | viability, T/C [7]: 123% | viability, T/C [8]: 122% | viability, T/C [9]: 105% | viability, T/C [10]: 19.7% | viability, T/C [11]: 0.11% | viability, T/C [12]: 134% | viability, T/C [13]: 136% | viability, T/C [14]: 132% | viability, T/C [15]: 129% | viability, T/C [16]: 4.16% | viability, T/C [17]: 0.13% | viability, T/C [18]: 78.8% | viability, T/C [19]: 68.6% | viability, T/C [20]: 57.7% | viability, T/C [21]: 76.5% | viability, T/C [22]: 3.6% | viability, T/C [23]: 0.77% | viability, T/C [24]: 23.4% | viability, T/C [25]: 21.8% | viability, T/C [26]: 23.6% | viability, T/C [27]: 23.7% | viability, T/C [28]: 1.97% | viability, T/C [29]: 0.97% | viability, T/C [30]: 11.2% | viability, T/C [31]: 9.33% | viability, T/C [32]: 10.7% | viability, T/C [33]: 8.93% | viability, T/C [34]: 2.11% | viability, T/C [35]: 0.25%

CC(C)NCC(C(=O)N1CCN(c2ncnc3c2C(C)CC3O)CC1)c1ccc(Cl)cc1 (stereo not given)
viability, T/C (compound 9.49 µM): 26.9% [middle of 10 runs] | viability, T/C (compound 30 µM): 12.7% [middle of 10 runs] | IC50 (compound alone, run of 02/20/2020): 6.46 µM [middle of 5 runs] | IC50 (compound alone, run of 03/19/2020): 5.01 µM [middle of 5 runs]

CC(C)CC(NC(=O)C(Cc1ccccc1)NC(=O)c1cnccn1)B(O)O (stereo not given)
viability, T/C (compound 31.6 pM): 98.1% and 102% | viability, T/C (compound 0.0001 µM): 115% and 110% | viability, T/C (compound 0.000316 µM): 101% and 108% | viability, T/C (compound 0.001 µM): 92.3% and 103% | viability, T/C (compound 0.00316 µM): 107% and 102% | IC50 (curve of compound): > 10 nM and 5.79 nM

CC(C)(C)c1nc(-c2cccc(NS(=O)(=O)c3c(F)cccc3F)c2F)c(-c2ccnc(N)n2)s1 + CC(C)NCC(C(=O)N1CCN(c2ncnc3c2C(C)CC3O)CC1)c1ccc(Cl)cc1
IC50 [1]: 5380 nM | IC50 [2]: 834 nM | IC50 [3]: 182 nM | IC50 [4]: < 31.6 nM | IC50 [5]: < 31.6 nM | viability, T/C [10]: 130% | viability, T/C [11]: 140% | viability, T/C (second compound 0.3 µM, first compound 0.316 µM): 156% | viability, T/C (second compound 0.3 µM, first compound 1 µM): 138% | viability, T/C (second compound 0.3 µM, first compound 3.16 µM): 77.8% | viability, T/C (second compound 0.3 µM, first compound 10 µM): 17.5% | viability, T/C [16]: 141% | viability, T/C [17]: 132% | viability, T/C (second compound 0.949 µM, first compound 0.316 µM): 87% | viability, T/C (second compound 0.949 µM, first compound 1 µM): 43.1% | viability, T/C (second compound 0.949 µM, first compound 3.16 µM): 22% | viability, T/C (second compound 0.949 µM, first compound 10 µM): 10.1% | viability, T/C [22]: 63.5% | viability, T/C [23]: 69% | viability, T/C (second compound 3 µM, first compound 0.316 µM): 35.1% | viability, T/C (second compound 3 µM, first compound 1 µM): 16.8% | viability, T/C (second compound 3 µM, first compound 3.16 µM): 10.3% | viability, T/C (second compound 3 µM, first compound 10 µM): 7.4% | viability, T/C [28]: 21.2% | viability, T/C [29]: 19.9% | viability, T/C (second compound 9.49 µM, first compound 0.316 µM): 15.2% | viability, T/C (second compound 9.49 µM, first compound 1 µM): 8.91% | viability, T/C (second compound 9.49 µM, first compound 3.16 µM): 5.79% | viability, T/C (second compound 9.49 µM, first compound 10 µM): 6.27% | viability, T/C [34]: 8.84% | viability, T/C [35]: 10.3% | viability, T/C (second compound 30 µM, first compound 0.316 µM): 7.86% | viability, T/C (second compound 30 µM, first compound 1 µM): 6.37% | viability, T/C (second compound 30 µM, first compound 3.16 µM): 3.65% | viability, T/C (second compound 30 µM, first compound 10 µM): 3.34%

COC1CC2CCC(C)C(O)(O2)C(=O)C(=O)N2CCCCC2C(=O)OC(C(C)CC2CCC(OCCO)C(OC)C2)CC(=O)C(C)C=C(C)C(O)C(OC)C(=O)C(C)CC(C)C=CC=CC=C1C (stereo not given) + CC(C)NCC(C(=O)N1CCN(c2ncnc3c2C(C)CC3O)CC1)c1ccc(Cl)cc1
IC50 [1]: > 100 nM | IC50 [2]: > 100 nM | IC50 [3]: 2.28 nM | IC50 [4]: < 0.316 nM | IC50 [5]: < 0.316 nM | viability, T/C [6]: 133% | viability, T/C [7]: 119% | viability, T/C [8]: 137% | viability, T/C [9]: 129% | viability, T/C [10]: 130% | viability, T/C [11]: 104% | viability, T/C [12]: 119% | viability, T/C [13]: 125% | viability, T/C [14]: 111% | viability, T/C [15]: 97.1% | viability, T/C [16]: 82.5% | viability, T/C [17]: 80.3% | viability, T/C [18]: 61.5% | viability, T/C [19]: 59.3% | viability, T/C [20]: 45.6% | viability, T/C [21]: 38.3% | viability, T/C [22]: 35.8% | viability, T/C [23]: 32.1% | viability, T/C [24]: 23.1% | viability, T/C [25]: 20% | viability, T/C [26]: 17.2% | viability, T/C [27]: 16.2% | viability, T/C [28]: 15.8% | viability, T/C [29]: 14.9% | viability, T/C [30]: 9.82% | viability, T/C [31]: 9.86% | viability, T/C [32]: 10.5% | viability, T/C [33]: 9.81% | viability, T/C [34]: 8.34% | viability, T/C [35]: 7.96%
